According to US12539333B2, “Tetracycline complexes with sustained activity” (FRAUNHOFER-GESELLSCHAFT ZUR FÖRDERUNG DER ANGEWANDTEN …, priority 2018, dated 2026):
≈ marks a conversion by molar mass, not a printed value. Entries after “also recorded” stand apart in the source; their conditions may differ.

What was measured:
[1] = Stability in aqueous environment (HPLC)
Experimental: For the stability investigations an Agilent 1200 Series system with a XTerra RP18 5 μm 3.9×150 column (Waters) was utilized. 10 μl sample volume were injected at a flowrate of 1.0 ml/min. For this method was also a gradient program applied. The mobile phase started with a composition of water/methanol (95/5+0.1% TFA) (A) and was shifted over 7 minutes to pure methanol (0.1% TFA) (B). After 3 minutes the mobile phase returned to solvent A within 1 minute. The retention time was 4.8 minutes. For the evaluation and extraction of the chromatograms, the Chem32 software was used.
For the stability investigation, 10 mg samples for minocycline and 20 mg for the complex were weighed into 4 ml glass vials. One of each vial was incubated in 4 ml of PBS pH 7.0 and another vial was exposed to 4 ml of an acidic solution at pH 2.3, which was adjusted with hydrochloric acid. Until the 9th day, samples were taken every day, while the removed volume was not replaced. From there on the intervals were stretched to 3 to 4 days.

S. aureus ATCC 29213 = test: Agar disc diffusion test; assay type: cell-based, Staphylococcus aureus; conditions: 30 μg of minocycline per disc; 35° C., 18 h
Experimental: . The procedure followed the recommendations set by EUCAST.
Test substance was the minocycline complex containing 10 mg/ml minocycline and controls were minocycline dissolved in ethanol (10 mg/ml), and pure ethanol. Solutions were diluted 3:7 with ethanol and immediately thereafter each 10 μl were pipetted to unloaded antibiotic test discs with a diameter of 6 mm (BD, Allschwil, Switzerland), thus each discs (except for ethanol control) contained 30 μg of minocycline. Overnight culture of S. aureus ATCC 29213 was suspended to McFarland 0.5, each 100 μl was spread on Mueller-Hinton-agar plate (Oxoid, Basingstoke, GB). Following the evaporation of the solvent, the test discs were placed on the plates. After incubation at 35° C. for 18 h, the diameters of the inhibition zones were measured.

[2] = tested on: Porphyromonas gingivalis ATCC 33277; test: MIC determination of eluates and calculated effective concentration of minocycline; assay type: cell-based; conditions: for Effective concentration of minocycline, calculated based on the MIC of the eluates (dilutions): P. ging.
Excerpt: (§1) In order to assess the release kinetics and biological activity of the active substances, an approach was chosen taking into consideration the conditions in the oral cavity, namely the flow rate (turnover) and composition of the sulcus in the gingival crevicular fluid (as described in Goodson, J M (2003), Periodontol 2000 31:43-54; Tew, J G et al. (1985), Infect Immun 49:487-93).

[3] = tested on: Streptococcus gordonii ATCC 10558; test: as above; assay type: cell-based; conditions: for Effective concentration of minocycline, calculated based on the MIC of the eluates (dilutions): S. gord.
Excerpt: as §1

## 1:2 Complex of Minocycline (Free Base) and Magnesium Stearate [Example 1]
[1]; PBS pH 7.0, 37° C.
  time after which the minocycline peak is still visible: ≥ 3 weeks
[1]; neutral conditions, 37° C.
  decay in aqueous environment: much slower
S. aureus ATCC 29213
  diameter of the inhibition zone: 24 mm

## CN(C)c1ccc(O)c2c1C[C@H]1C[C@H]3[C@H](N(C)C)C(O)=C(C(N)=O)C(=O)[C@@]3(O)C(O)=C1C2=O [Minocycline, (4S,4aS,5aR,12aR)-4,7-bis(dimethylamino)-1,10,11,12a-tetrahydroxy-3,12-dioxo-4a,5,5a,6-tetrahydro-4H-tetracene-2-carboxamide]
[1]; PBS pH 7.0, 37° C.
  time within which the minocycline peak vanishes: ≤ 3 days
[1]; acidic conditions pH 2.3, 37° C.
  decay in aqueous environment: decomposition process is slower; also recorded: more moderate decay
[1]; buffer (PBS) pH 7.1, 37° C.
  time to complete decomposition: 3 days
S. aureus ATCC 29213
  diameter of the inhibition zone: 26 mm
[2]; Porphyromonas gingivalis, ATCC33277, P. gingivalis ATCC 33277
  MIC: 0.25 µg/mL (≈ 0.546 µM)
[2]; eluate 1 h
  Effective concentration of minocycline, calculated based on the MIC of the eluates (dilutions): >32000
[2]; eluate 2 h
  Effective concentration of minocycline, calculated based on the MIC of the eluates (dilutions): 2000
[2]; eluate 4 h
  Effective concentration of minocycline, calculated based on the MIC of the eluates (dilutions): 1000
[2]; eluate 24 h
  Effective concentration of minocycline, calculated based on the MIC of the eluates (dilutions): 500
[2]; eluate 2 d
  Effective concentration of minocycline, calculated based on the MIC of the eluates (dilutions): 62.5
[2]; eluate 7 d
  Effective concentration of minocycline, calculated based on the MIC of the eluates (dilutions): 62.5
[2]; eluate 14 d
  Effective concentration of minocycline, calculated based on the MIC of the eluates (dilutions): 4
[2]; eluate 21 d
  Effective concentration of minocycline, calculated based on the MIC of the eluates (dilutions): <1
[2]; eluate 28 d
  Effective concentration of minocycline, calculated based on the MIC of the eluates (dilutions): <1
[2]; eluate 35 d
  Effective concentration of minocycline, calculated based on the MIC of the eluates (dilutions): <1
[2]; eluate 42 d
  Effective concentration of minocycline, calculated based on the MIC of the eluates (dilutions): <1
[3]; Streptococcus gordonii, ATCC10558, S. gordonii ATCC 10558
  MIC: 0.5 µg/mL (≈ 1.09 µM)
[3]; eluate 1 h
  Effective concentration of minocycline, calculated based on the MIC of the eluates (dilutions): >16000
[3]; eluate 2 h
  Effective concentration of minocycline, calculated based on the MIC of the eluates (dilutions): 8000
[3]; eluate 4 h
  Effective concentration of minocycline, calculated based on the MIC of the eluates (dilutions): 2000
[3]; eluate 24 h
  Effective concentration of minocycline, calculated based on the MIC of the eluates (dilutions): 250
[3]; eluate 2 d
  Effective concentration of minocycline, calculated based on the MIC of the eluates (dilutions): 62.5
[3]; eluate 7 d
  Effective concentration of minocycline, calculated based on the MIC of the eluates (dilutions): 4
[3]; eluate 14 d
  Effective concentration of minocycline, calculated based on the MIC of the eluates (dilutions): <2
[3]; eluate 21 d
  Effective concentration of minocycline, calculated based on the MIC of the eluates (dilutions): <2
[3]; eluate 28 d
  Effective concentration of minocycline, calculated based on the MIC of the eluates (dilutions): <2
[3]; eluate 35 d
  Effective concentration of minocycline, calculated based on the MIC of the eluates (dilutions): <2
[3]; eluate 42 d
  Effective concentration of minocycline, calculated based on the MIC of the eluates (dilutions): <2
